Where two headings read alike, the source gives them in different places.
How the values were obtained:
[1] = Self-assembly morphology by AFM, TEM and DLS; type: physicochemical
Excerpt: The self-assembly of Sq was established by atomic force microscopy (AFM), transition electron microscopy (TEM) and DLS analysis. […] The dynamic light scattering (DLS) measurements of a buffer solution containing.

HSA protein = HSA protein (Homo sapiens, UniProt P02768); experiment: Noncovalent (pH 4.2) and covalent (pH 8.2) labeling of serum albumin, fluorescence turn-on; type: binding; conditions: 25 mM phosphate buffer, 6 μM
Sequence of HSA protein (P02768 25-609): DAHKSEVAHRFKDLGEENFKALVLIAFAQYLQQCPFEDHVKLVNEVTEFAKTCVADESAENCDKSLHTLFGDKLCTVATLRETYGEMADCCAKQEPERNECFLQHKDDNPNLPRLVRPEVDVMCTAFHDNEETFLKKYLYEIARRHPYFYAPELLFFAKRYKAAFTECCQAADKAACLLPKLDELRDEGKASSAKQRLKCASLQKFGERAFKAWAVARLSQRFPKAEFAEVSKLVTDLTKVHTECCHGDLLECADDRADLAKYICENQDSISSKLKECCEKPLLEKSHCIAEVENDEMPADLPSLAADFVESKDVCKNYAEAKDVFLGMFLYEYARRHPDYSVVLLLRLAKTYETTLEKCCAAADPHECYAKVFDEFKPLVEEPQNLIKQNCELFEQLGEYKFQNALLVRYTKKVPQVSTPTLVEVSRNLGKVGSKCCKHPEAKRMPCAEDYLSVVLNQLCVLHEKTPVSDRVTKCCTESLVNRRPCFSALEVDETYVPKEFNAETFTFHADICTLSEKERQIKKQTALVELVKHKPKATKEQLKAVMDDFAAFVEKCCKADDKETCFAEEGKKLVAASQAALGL
Excerpt: (§1) This selectivity apparently originates from the Sq disassembly driven by the molecular recognition sites of the serum albumin proteins.

[2] = Selectivity against small thiol containing molecules in self-assembled state; conditions: 10 equivalent; Sq 6×10^−6 M; 480 nm
Excerpt: The selectivity of our nanoprobe towards serum albumin proteins from small thiol containing molecules like cysteine, homocysteine, glutathione, mercaptoethanol, dithiothreitol, cystamine and thioglycolic acid at a higher pH of 8.2, where the dye is expected to undergo thiol alkylation reaction is investigated. […] Bar diagram represents the selectivity of Sq (6×10^−6 M) for BSA and HSA protein (6×10^−6 M) from other small thiol containing molecules (FIG. 10) which clearly indicate that the probe in its self-assembled state is able to detect serum albumin protein among other thiol containing small molecules.

Hep-G2 cells [3] = experiment: Detection of minor thiol fluctuations inside HepG2 cells pre-treated with NEM; type: cell-based, Human; conditions: NEM 3×10^−3 M to 3×10^−6 M, 15 minutes; dye 10 minutes
Method: (§2) The culture medium was prepared by dissolving 13.4 g of DMEM-high glucose (Sigma, USA) in 1 L of distilled water. Sodium bicarbonate (3.7 g L^−1) was added to the medium and the pH of the medium was adjusted to 7.4. This medium was then sterilized by passing through a sterile filter assembly fitted with a 0.22 μm filter (Millipore, USA) using a vacuum pump. Later, the medium was stored in pre-sterilized Borosil polypropylene bottles, at 4° C., until further use. To the prepared culture medium an antibiotic mixture (20 μL mL^−1 of 100× concentrate, Sigma, USA) was added. Fetal bovine serum (FBS) (Sigma, USA) was also added to the medium to give a final concentration of 10% (to 900 mL medium, 100 mL of FBS was added).
Hep G2 cells (Human Hepatocellular carcinoma cell lines), which was obtained, from National Centre for Cell Science, Pune, India, were stored in cryovials at −196° C. in liquid nitrogen, in a medium containing 70% FBS, 10% dimethyl sulfoxide (DMSO) and 20% DMEM. […]
Hep-G2 cells were pre-incubated with NEM of various concentrations (3×10^−3 M to 3×10^−6 M) and kept for 15 minutes. […] The cells were then centrifuged and diluted for 2 times and then images were-taken using confocal fluorescence microscope using alexa (640 nm exc) and DAPI (380 nm exc) as filters.

BSA protein = BSA protein (Bos taurus, UniProt P02769); experiment: Noncovalent (pH 4.2) and covalent (pH 8.2) labeling of serum albumin, fluorescence turn-on; type: binding, Bovine; conditions: 25 mM phosphate buffer, 6 μM
Sequence of BSA protein (P02769 25-607): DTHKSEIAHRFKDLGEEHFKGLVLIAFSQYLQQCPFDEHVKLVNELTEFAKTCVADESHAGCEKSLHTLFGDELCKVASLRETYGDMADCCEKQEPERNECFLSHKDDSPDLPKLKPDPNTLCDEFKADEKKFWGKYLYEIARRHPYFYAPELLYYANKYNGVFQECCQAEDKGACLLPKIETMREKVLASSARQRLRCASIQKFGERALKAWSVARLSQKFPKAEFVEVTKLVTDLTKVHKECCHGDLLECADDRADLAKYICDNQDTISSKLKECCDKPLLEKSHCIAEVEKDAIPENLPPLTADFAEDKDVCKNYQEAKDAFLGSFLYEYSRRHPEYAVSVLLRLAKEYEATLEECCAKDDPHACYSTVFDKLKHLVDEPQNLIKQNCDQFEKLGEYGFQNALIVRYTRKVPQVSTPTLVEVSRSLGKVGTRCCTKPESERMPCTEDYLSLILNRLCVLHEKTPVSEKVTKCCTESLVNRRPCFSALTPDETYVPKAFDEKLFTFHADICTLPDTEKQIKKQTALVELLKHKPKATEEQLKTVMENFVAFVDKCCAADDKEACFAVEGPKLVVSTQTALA
Method: Stock solution of Sq (1.2×10^−3 M) was prepared in acetonitrile and stock solution of BSA protein (2.4×10^−3M) was prepared in 25 mM phosphate buffer at pH 4.2. 15 μL of Sq from the stock solution is added to the 25 mM phosphate buffer at pH 4.2, to make the resulting concentration of the solution into 6×10^−6 M. To this solution different volumes ranging from 7.5-150 μL of BSA protein were added and the absorption and emission spectra were recorded each time after 20 minutes. The broad absorption (550-850 nm) corresponding to the absorption of Sq aggregates narrowed with a turn-on fluorescence at 700 nm (λexc @ 640 nm) emission was observed.
Stock solution of Sq (1.2×10^−3 M) was prepared in acetonitrile and stock solution of BSA protein (1.2×10^−3 M) was prepared in 25 mM phosphate buffer at a pH of 8.2. 15 μL of Sq from the stock solution is added to 25 mM phosphate buffer at pH 8.2, to make the resulting concentration of the solution to 6×10^−6 M. To this solution different volumes ranging from 1.5-36 μL of BSA protein were added and the absorption and emission spectra were recorded at 15 minutes interval. The broad absorption (550-850 nm) corresponding to the absorption of Sq aggregates quenched with concomitant formation of an absorption at 380 nm was observed (FIG. 8a). […]

[4] = Fluorescence detection of thiols (GSH) by Sq, selectivity and sensitivity; conditions: pH 8.0
Method: Sq detects GSH quantitatively with high sensitivity (2 nM) (FIG. 3). Formula 1 prepared in 30% ACN/25 mM phosphate buffer is used for monitoring thiol variations inside cells. […] The aggregation was confirmed by temperature-dependent UV/Vis and emission spectroscopic studies in 15% acetonitrile/water mixture (FIG. 5a and FIG. 5b). The self-assembly of Sq was established further by atomic force microscopy (AFM), transition electron microscopy (TEM) and DLS analysis. […] Formula 1 prepared in 25 mM phosphate buffer solution at a pH of 4.2 labels serum albumin proteins noncovalently, which is evident from the UV-vis and emission spectroscopic studies. The broad absorption (550-850 nm) corresponding to the absorption of Sq aggregates narrowed with a turn-on fluorescence at 700 nm exc @ 640 nm) emission upon addition of BSA protein was observed (FIGS. 7a & 7b). The solution of the Sq dye in phosphate buffer has a blue color but nonemissive (FIG. 7c, top). […] The 1:6 Sq-BSA complex whose pH sensitivity lies within the physiological region and due to the ratiometric fluorescence response (FIG. 14) this system was used for monitoring minor pH fluctuations inside cells ratiometrically. […] Quantitative data for pH measurements in cells were obtained using bio-rad image data explorer software (table 2). […]

[5] = system: other thiol and nonthiol containing proteins (heamoglobin, glutathione reductase, bromelain); experiment: Selectivity against other thiol and nonthiol containing proteins; type: binding
Excerpt: as §1

[6] = Stability of the dye over pH; type: physicochemical
Excerpt: Even though noncovalent interaction of serum albumin proteins and covalent interaction of thiol containing small molecules with squaraine dyes are known in individual cases, achieving both type of interaction by a single probe in a reversible fashion with an external stimulus remains challenging. Therefore, the first and foremost task was identifying an appropriate switchable dye molecule, which is stable at a broad pH window with distinct emission wavelengths during the different modes of interactions and having a tunable pH responsive interaction. […] This absorption band is similar to the absorption of Sq in acetonitrile in which the molecule exists in the monomeric state. […] Sq (6 μM) in a 25 mM phosphate buffer (pH 4.2) has no emission at 700 nm due to the aggregation. Upon addition of BSA protein, a gradual enhancement in the fluorescence intensity at 700 nm was observed (FIG. 7b). This fluorescence enhancement is due to the disassembly of aggregates and the consequent noncovalent interaction between Sq and BSA protein. The solution of the Sq dye in 25 mM phosphate buffer has a blue color and at this stage the dye is non emissive (FIG. 7c, top).

Hep-G2 cells [7] = type: cell-based; conditions: for Fluorescence Intensity, DAPI Image: 380 nm exc; for Fluorescence Intensity, DAPI Image / Fluorescence Intensity, Alexa Image: complex 1×10^−6 M; for Fluorescence Intensity, Alexa Image: 640 nm exc
Method: as §2
Hep G2 cells (Human Hepatocellular carcinoma cell lines), which was obtained, from National Centre for Cell Science, Pune, India, were stored in cryovials at −196° C. in liquid nitrogen, in a medium containing 70% FBS, 10% dimethyl sulfoxide (DMSO) and 20% DMEM. For revival, the vials were thawed by placing them in a water-bath maintained at 37° C. for 2-3 minutes followed by centrifugation at 3000 rpm for 3 minutes. Supernatent was removed and the pellet after suspending in medium were transferred into a radiation sterilized culturing flask, T-25 cm^2 (BD Biosciences) inside the laminar flow. Subsequently, the flask was placed in a CO2 incubator for 2 h. The viable cells stick to the culture flask while the dead cells remain in the medium. Later the medium was replaced with fresh medium containing 10% FBS and incubated till a cell confluency of 70-80%. The medium was then discarded following desired confluency. Following confluency, since the Hep G2 cells are adherent in nature, they were trypsinised by using 1 mL of trypsin (0.25%)—EDTA (0.53 mM) buffer containing 0.9% sodium chloride for […]. The cells were then transferred to a centrifuge tube and centrifuged at 2000 rpm for 3 min, followed by the removal of the supernatant.
For sub culturing, fresh DMEM containing 10% FBS was added under aseptic conditions. Cells were flushed with the help of pipette (1 mL) until the cells are completely dispersed into the medium. The cells were then diluted in a sterile complete medium at 1:3 times and transferred into fresh culture flasks. Then the flasks were placed inside CO2 incubator.
The 1:6 Sq-BSA Complex whose sensitivity of pH lies within the physiological region and due to the ratiometric fluorescence response (FIG. 14) was used in this system for monitoring minor pH fluctuations inside cells ratiometrically. Hep-G2 cells were pre-incubated with phosphate buffer of different pH (6.5, 7.0, 7.5) and kept for 10 minutes. The 1:6 Sq-BSA complex (1×10^−6 M), which was prepared by mixing 5 μl of Sq (4×10^−5 M, prepared in acetonitrile) and 15 μl of BSA protein (1.2×10^−3 M, prepared in phosphate buffer 4.2) was added to each cells and kept for 10 minutes. The cells were then centrifuged and diluted for 2 times and then images has taken using confocal fluorescence microscope using alexa (640 nm exc) and DAPI (380 nm exc) as filters. With respect to the pH of the wells the fluorescence intensity from the DAPI image was enhanced and the alexa image got quenched. Quantitative data for pH measurements in cells were obtained using bio-rad image data, explorer software (table 2). The viability of the cells after incubation of Sq-BSA complex was confirmed by the bright-field transmission measurements (FIG. 15 c, bottom).

Molecule: CCCCN(CCCC)c1ccc(C2=C(O)C(c3ccc(/C=C/c4cc(OC)ccc4OC)n3CCOCCOCCOC)C2=O)cc1 (centres unmarked) [Sq, (E)-2-(4-(dibutylamino)phenyl)-4-(5-(2,5-dimethoxystyryl)-1-(2-(2-(2-methoxyethoxy)ethoxy)ethyl)-1H-pyrrol-2-yl)-3-hydroxycyclobut-2-enone]
- diameter of spherical aggregates (AFM and TEM) ([1]; 6×10^−6 M in 25 mM phosphate buffer, pH 4.2): 100-300 nm
- mean diameter of aggregates (DLS) ([1]; buffer solution, Sq 6 μM): 200 nm
- fluorescence response with HSA at pH 8.2 (covalent labeling) (HSA protein; λexc 380 nm): green emission at 480 nm
- fluorescence response with HSA at pH 4.2 (noncovalent labeling) (HSA protein; λexc 640 nm): fluorescence enhancement at 700 nm
- fluorescence response with thiol containing small molecules at pH 8.2 [2]: unable to generate much fluorescent enhancement in the 480 nm region
- fluorescence intensity in cells versus NEM concentration (Hep-G2 cells [3]): gradual quenching
- fluorescence response with BSA at pH 8.2 (covalent labeling) (BSA protein; λexc 380 nm): green emission at 480 nm
- fluorescence response with BSA at pH 4.2 (noncovalent labeling) (BSA protein; λexc 640 nm): fluorescence enhancement at 700 nm
- selectivity toward thiols among amino acids (fluorescence at 510 nm) ([4]; 20 equivalence of 9 amino acids, 1 equivalence Cys, Hcy, GSH): highly selective to GSH
- detection limit for GSH (fluorescent intensity at 510 nm) ([4]; 30% ACN/25 mM phosphate buffer, λexc 380 nm): 2 nM
- fluorescence response with heamoglobin, glutathione reductase, bromelain at pH 8.2 ([5]; 0.10 equivalence, 480 nm): unable to produce fluorescence enhancement at 480 nm
- fluorescence response with other thiols and nonthiol containing proteins at pH 4.2 ([5]; 10 equivalence, 700 nm): no fluorescence enhancement in the NIR region
- pH range of stability [6]: 2-12

Molecule: 1:6 Sq-BSA complex: complex of squaraine dye Sq with BSA protein in ratio 1:6
- viability of the cells after incubation (Hep-G2 cells [7]): confirmed
- Fluorescence Intensity, DAPI Image (Hep-G2 cells [7]; pH 6.5): 8.5
- Fluorescence Intensity, Alexa Image (Hep-G2 cells [7]; pH 6.5): 39.84
- Fluorescence Intensity, DAPI Image (Hep-G2 cells [7]; pH 7.0): 24.61
- Fluorescence Intensity, Alexa Image (Hep-G2 cells [7]; pH 7.0): 21.47
- Fluorescence Intensity, DAPI Image (Hep-G2 cells [7]; pH 7.5): 30.18
- Fluorescence Intensity, Alexa Image (Hep-G2 cells [7]; pH 7.5): 18.08

From patent publication US9791451B2, “Squaraine based fluorescent probe and a process for the preparation thereof” (Council of Scientific & Industrial Research, priority 2013, dated 2017)
